Earlier results as cited in patent US9364479B2, “Use of a receptor-type kinase modulator for treating polycystic kidney disease” (SYMPHONY EVOLUTION, INC., priority 2010, dated 2016).

Experiments:
bpk mice or PCK rat = settings: cited from earlier work
bpk mice = settings: cited from earlier work
PKD model = settings: in vivo; cited from earlier work

COc1cc(Nc2c(C#N)cnc3cc(OCCCN4CCN(C)CC4)c(OC)cc23)c(Cl)cc1Cl [SKI-606]
renal cyst formation and biliary duct abnormalities, in words (bpk mice or PCK rat): ameliorated renal cyst formation and biliary duct abnormalities

CC#CC(=O)Nc1ccc2ncnc(Nc3cccc(Br)c3)c2c1 [EKI-785]
progression of PKD, in words (bpk mice): effective in preventing the progression of PKD

CCOc1cc2ncc(C#N)c(Nc3ccc(F)c(Cl)c3)c2cc1NC(=O)/C=C/CN(C)C [EKB-569]
cyst formation and renal function, in words (PKD model): effective in reducing cyst formation and maintaining normal renal function
